From the supplement of paper PMC6045584
± gives the standard deviation of the averaged measurements.

Experiments:
AFIMOXIFENE = compound: CC/C(=C(\c1ccc(O)cc1)c1ccc(OCCN(C)C)cc1)c1ccccc1 [AFIMOXIFENE]; test: surviving fraction relative to DMSO-only wells; higher = less growth inhibition; conditions: exposure time: 5 days
How it was run: (§1)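 Log-phase tumour cells were seeded at 250–500 per well in 384-well plates and, from 24 hours after seeding, exposed continuously for five days to inhibitors at 0.5, 1, 5, 10, 50, 100, 500 and 1000 nM. Surviving fraction is CellTiter-Glo luminescence normalised to the median of DMSO-only wells. Luminescence was measured after 10 minutes at room temperature, and only lines screened three times with replicate Pearson r >0.7 and median Z' >0.3 were kept.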

BLEOMYCIN = compound: Cc1c(N)nc([C@H](CC(N)=O)NC[C@H](N)C(N)=O)nc1C(=O)N[C@H](C(=O)N[C@H](C)[C@@H](O)[C@H](C)C(=O)N[C@H](C(=O)NCCc1nc(-c2nc(C(=O)NCCC[S+](C)C)cs2)cs1)[C@@H](C)O)[C@@H](OC1OC(CO)C(O)C(O)C1OC1OC(CO)C(O)C(OC(N)=O)C1O)c1cnc[nH]1 [BLEOMYCIN]; test: as above; conditions: exposure time: 5 days
How it was run: as §1

Test System | surviving fraction (AFIMOXIFENE; 0.5 nM) | surviving fraction (AFIMOXIFENE; 1 nM) | surviving fraction (AFIMOXIFENE; 5 nM) | surviving fraction (AFIMOXIFENE; 10 nM) | surviving fraction (AFIMOXIFENE; 50 nM) | surviving fraction (AFIMOXIFENE; 100 nM) | surviving fraction (AFIMOXIFENE; 500 nM) | surviving fraction (AFIMOXIFENE; 1000 nM) | surviving fraction (BLEOMYCIN; 0.5 nM) | surviving fraction (BLEOMYCIN; 1 nM) | surviving fraction (BLEOMYCIN; 5 nM) | surviving fraction (BLEOMYCIN; 10 nM) | surviving fraction (BLEOMYCIN; 50 nM) | surviving fraction (BLEOMYCIN; 100 nM) | surviving fraction (BLEOMYCIN; 500 nM) | surviving fraction (BLEOMYCIN; 1000 nM)
MDAMB361 BREAST | 0.875 ± 0.038 | 0.832 ± 0.096 | 0.756 ± 0.061 | 0.815 ± 0.11 | 0.854 ± 0.081 | 0.856 ± 0.037 | 1.09 ± 0.078 | 0.782 ± 0.013 | 0.78 ± 0.07 | 0.761 ± 0.13 | 0.698 ± 0.03 | 0.819 ± 0.067 | 0.843 ± 0.016 | 0.882 ± 0.046 | 0.838 ± 0.047 | 0.865 ± 0.14
ASKA SYNOVIAL | 1.11 ± 0.056 | 1.18 ± 0.097 | 1.18 ± 0.096 | 1.23 ± 0.031 | 1.18 ± 0.029 | 1.17 ± 0.069 | 1.04 ± 0.1 | 1.14 ± 0.064 | 0.897 ± 0.1 | 0.895 ± 0.046 | 0.94 ± 0.096 | 0.931 ± 0.028 | 0.811 ± 0.027 | 0.689 ± 0.026 | 0.427 ± 0.029 | 0.343 ± 0.015
SG28 HEADNECK | 1.208 ± 0.0021 | 1.04 ± 0.057 | 1.1 ± 0.15 | 0.965 ± 0.1 | 1.14 ± 0.1 | 0.985 ± 0.04 | 1.12 ± 0.04 | 1.05 ± 0.088 | 0.864 ± 0.081 | 0.917 ± 0.11 | 0.892 ± 0.056 | 0.907 ± 0.13 | 0.944 ± 0.074 | 0.899 ± 0.053 | 0.909 ± 0.028 | 0.868 ± 0.1
SCC003 HEADNECK | 1.127 ± 0.0056 | 1.14 ± 0.015 | 1.1 ± 0.091 | 1.07 ± 0.057 | 1.13 ± 0.055 | 1.1 ± 0.091 | 1.151 ± 0.0068 | 1.11 ± 0.042 | 0.782 ± 0.088 | 0.787 ± 0.087 | 0.792 ± 0.076 | 0.822 ± 0.12 | 0.975 ± 0.012 | 0.934 ± 0.039 | 0.56 ± 0.05 | 0.457 ± 0.016
SIHA CERVIX | 1.1 ± 0.029 | 1.07 ± 0.051 | 1.09 ± 0.072 | 1.19 ± 0.031 | 1.15 ± 0.06 | 1.21 ± 0.032 | 1.13 ± 0.062 | 1.09 ± 0.058 | 0.959 ± 0.083 | 0.957 ± 0.017 | 1.02 ± 0.042 | 1.02 ± 0.046 | 1.08 ± 0.071 | 1.08 ± 0.059 | 0.961 ± 0.053 | 0.967 ± 0.024
SYO1 SYNOVIAL | 0.993 ± 0.023 | 1.01 ± 0.04 | 1.04 ± 0.013 | 1.03 ± 0.072 | 0.954 ± 0.035 | 0.982 ± 0.028 | 0.939 ± 0.023 | 1.04 ± 0.087 | 0.809 ± 0.058 | 0.778 ± 0.044 | 0.753 ± 0.035 | 0.695 ± 0.029 | 0.45 ± 0.014 | 0.355 ± 0.032 | 0.104 ± 0.019 | 0.0704 ± 0.019
HT1080 SOFT TISSUE | 1.07 ± 0.035 | 1.08 ± 0.018 | 1.08 ± 0.037 | 1.04 ± 0.018 | 1.01 ± 0.039 | 1.04 ± 0.023 | 1.07 ± 0.042 | 1.06 ± 0.035 | 1.001 ± 0.0036 | 0.965 ± 0.044 | 0.935 ± 0.018 | 0.886 ± 0.024 | 0.798 ± 0.071 | 0.7 ± 0.046 | 0.402 ± 0.0042 | 0.324 ± 0.012
SG43 HEADNECK | 0.934 ± 0.082 | 1.06 ± 0.26 | 1.14 ± 0.34 | 0.825 ± 0.14 | 0.903 ± 0.016 | 1 ± 0.14 | 1.16 ± 0.12 | 0.927 ± 0.13 | 1.13 ± 0.058 | 1.08 ± 0.13 | 1.02 ± 0.096 | 0.81 ± 0.18 | 0.583 ± 0.015 | 0.78 ± 0.087 | 0.613 ± 0.17 | 0.391 ± 0.13
MCF7 BREAST | 1.02 ± 0.045 | 0.976 ± 0.045 | 0.917 ± 0.036 | 0.928 ± 0.045 | 0.877 ± 0.035 | 0.857 ± 0.037 | 0.834 ± 0.046 | 0.775 ± 0.012 | 0.816 ± 0.033 | 0.821 ± 0.015 | 0.819 ± 0.007 | 0.779 ± 0.05 | 0.829 ± 0.037 | 0.847 ± 0.028 | 0.787 ± 0.0039 | 0.7254 ± 0.0065
HELA CERVIX | 1.05 ± 0.063 | 1.02 ± 0.11 | 1.08 ± 0.061 | 1 ± 0.055 | 1.1 ± 0.071 | 1.11 ± 0.065 | 1.17 ± 0.058 | 1.08 ± 0.12 | 0.972 ± 0.026 | 0.932 ± 0.02 | 0.958 ± 0.024 | 0.963 ± 0.027 | 1.035 ± 0.0087 | 1.07 ± 0.061 | 0.803 ± 0.032 | 0.6 ± 0.062
